Tests used:
[1] = target: Glutamate [NMDA] receptor; assay: Inhibition of [3H]DCKA binding to N-methyl-D-aspartate glutamate receptor; format: protein-complex assay
[2] = target: Glutamate [NMDA] receptor; assay: Compound was tested for inhibition of [3H]DCKA binding to N-methyl-D-aspartate glutamate receptor; format: protein-complex assay; parameters: unit not given here

| Structure (SMILES) | IC50 [1] | Log 1/IC50 [2] |
| --- | --- | --- |
| Oc1cc2nc(O)c(O)nc2cc1O | > 100000 nM | -2 |
| Cc1cccc(-c2c(O)nc3cc(Cl)cnc3c2O)c1 | 1800 nM | -0.25 |
| Oc1nc2ncccc2c(O)c1-c1ccccc1 | > 100000 nM | -2 |
| O=Nc1c(O)nc2c(Cl)cccc2c1O | > 100000 nM | -2 |
| COc1cc2nc(O)c(O)nc2c(OC(C)=O)c1OC | 53000 nM | -1.72 |
| COc1cc2nc(O)c(O)nc2c(O)c1OC | 17000 nM | -1.23 |
| O=Nc1c(O)nc2cccc(Cl)c2c1O | 4400 nM | -0.64 |
| Oc1nc2cc(Cl)cnc2c(O)c1-c1ccccc1 | 3300 nM | -0.52 |
| CCc1cc2nc(O)c(O)nc2cc1CC | 1800 nM | -0.26 |
| Oc1nc2cc(Cl)cnc2c(O)c1-c1cccc(Oc2ccccc2)c1 | 110 nM | 0.96 |
| Cc1cc2nc(O)c(O)nc2cc1Cl | 780 nM | 0.11 |
| Oc1nc2ncc(Cl)cc2c(O)c1-c1cccc(Oc2ccccc2)c1 | 19000 nM | -1.28 |
| O=Nc1c(O)nc2ccc(Cl)cc2c1O | 3400 nM | -0.53 |
| O=[N+]([O-])c1c(OCCCc2ccccc2)c(F)cc2nc(O)c(O)nc12 | 4000 nM | -0.6 |
| Oc1nc2cc3ccccc3cc2nc1O | 16000 nM | -1.2 |
| Oc1nc2cc(Cl)cc(Cl)c2nc1O | 280 nM | 0.55 |
| Cc1c(Cl)cc2nc(O)c(O)nc2c1N | 150 nM | 0.82 |
| Oc1nc2c(F)c(F)c(F)c(F)c2nc1O | 730 nM | 0.14 |
| COc1cc2nc(O)c(O)nc2cc1Br | 1000 nM | 0 |
| O=Nc1c(O)nc2c(F)c(F)c(F)c(F)c2c1O | 3300 nM | -0.52 |
| O=Nc1c(O)nc2ccccc2c1O | 1400 nM | -0.15 |
| O=c1[nH]c2cc3c(c([N+](=O)[O-])c2[nH]c1=O)CCC3 | 3100 nM | -0.49 |
| Oc1nc2cc(Cl)cnc2c(O)c1Oc1cccc(-c2ccccc2)c1 | 23 nM | 1.64 |
| Oc1nc2cc(Cl)cnc2c(O)c1-c1ccc(Cl)cc1 | 13000 nM | -1.11 |

| Structure (SMILES) | IC50 [1] | Log 1/IC50 [2] |
| --- | --- | --- |
| CCc1cc2nc(O)c(O)nc2cc1Cl | 1400 nM | -0.15 |
| COc1cccc(-c2c(O)nc3cc(Cl)cnc3c2O)c1 | 2900 nM | -0.46 |
| Oc1nc2cc3c(cc2nc1O)CCC3 | 15000 nM | -1.17 |
| Cc1cc2nc(O)c(O)nc2cc1C | 3300 nM | -0.52 |
| N#Cc1cc([N+](=O)[O-])c2nc(O)c(O)nc2c1 | 2800 nM | -0.45 |
| Oc1nc2ncccc2c(O)c1-c1cccc(Oc2ccccc2)c1 | 31000 nM | -1.49 |
| Oc1nc2cc(Cl)cnc2c(O)c1-c1cccc(Cl)c1 | 3000 nM | -0.48 |
| O=Nc1c(O)nc2c(F)c(Cl)c(F)cc2c1O | 910 nM | 0.04 |
| Oc1nc2ncc(Cl)cc2c(O)c1-c1ccccc1 | > 100000 nM | -2 |
| Oc1nc2cc(Cl)cnc2c(O)c1-c1ccsc1 | 4300 nM | -0.63 |
| Oc1nc2cc(F)c(Cl)c(F)c2nc1O | 630 nM | 0.2 |
| COc1cc2nc(O)c(O)nc2cc1OC | 17000 nM | -1.23 |
| Cc1cc(C)c2nc(O)c(O)nc2c1 | 2100 nM | -0.32 |
| Oc1nc2cccnc2c(O)c1-c1ccccc1 | > 100000 nM | -2 |
| Oc1nc2cc3c(cc2nc1O)OCO3 | > 100000 nM | -2 |
| Oc1nc2cc(Cl)cnc2c(O)c1-c1ccccc1Cl | 24000 nM | -1.38 |
| O=Nc1c(O)nc2cc(Cl)ccc2c1O | 53 nM | 1.28 |
| Oc1nc2ccc(Cl)cc2nc1O | 1800 nM | -0.25 |
| Oc1nc2cc(Cl)cnc2c(O)c1-c1cccs1 | 9800 nM | -0.99 |
| Oc1nc2cnccc2c(O)c1-c1cccc(Oc2ccccc2)c1 | 5400 nM | -0.73 |
| Oc1nc2ccncc2c(O)c1-c1cccc(Oc2ccccc2)c1 | 20000 nM | -1.3 |
| Cc1cc(C)c2c(O)c(N=O)c(O)nc2c1 | 37 nM | 1.43 |
| Oc1nc2ccccc2nc1O | 9800 nM | -0.99 |

Second part, the molecule after the results:

| IC50 [1] | Log 1/IC50 [2] | Structure (SMILES) |
| --- | --- | --- |
| 61000 nM | -1.78 | O=[N+]([O-])c1c(O)nc2cccc(Cl)c2c1O |
| > 100000 nM | -2 | O=[N+]([O-])c1c(O)nc2ccc(Cl)cc2c1O |
| 9300 nM | -0.97 | Cc1cc([N+](=O)[O-])c2nc(O)c(O)nc2c1 |
| 1500 nM | -0.18 | O=[N+]([O-])c1c(O)nc2cc(Cl)ccc2c1O |
| 1900 nM | -0.28 | COc1c(F)cc2nc(O)c(O)nc2c1[N+](=O)[O-] |
| 7 nM | 2.15 | O=Nc1c(O)nc2cc(Cl)c(Cl)c(Cl)c2c1O |
| 4.7 nM | 2.33 | Cc1c(Cl)cc2nc(O)c(O)nc2c1[N+](=O)[O-] |
| 5.9 nM | 2.23 | O=c1[nH]c2cc(Cl)c(Cl)c([N+](=O)[O-])c2[nH]c1=O [LICOSTINEL] |
| 130 nM | 0.89 | Oc1nc2cc(Cl)c(Cl)cc2nc1O [2,3-DIHYDROXY-6,7-DICHLOROQUINOXALINE] |
| 160 nM | 0.8 | CCc1cc2nc(O)c(O)nc2c([N+](=O)[O-])c1CC |
| 30 nM | 1.53 | Oc1nc2cc(Cl)c(Cl)c(Cl)c2nc1O |
| 400 nM | 0.4 | O=[N+]([O-])c1c(O)nc2cc(Cl)c(Cl)cc2c1O |
| 170 nM | 0.77 | O=Nc1c(O)nc2ccc(Cl)c(Cl)c2c1O |
| 220 nM | 0.66 | O=[N+]([O-])c1c(O)nc2cc(Cl)cc(Cl)c2c1O |
| 11000 nM | -1.04 | Nc1c(F)cc2nc(O)c(O)nc2c1[N+](=O)[O-] |
| 40000 nM | -1.6 | O=[N+]([O-])c1c(O)nc2c(F)c(Cl)c(F)cc2c1O |
| 220 nM | 0.66 | O=[N+]([O-])c1c(O)nc2cc(Cl)c(Cl)c(Cl)c2c1O |
| 33 nM | 1.48 | O=Nc1c(O)nc2cc(Cl)cc(Cl)c2c1O |
| > 100000 nM | -2 | O=[N+]([O-])c1c(O)nc2c(Cl)c(Cl)c(Cl)cc2c1O |

| IC50 [1] | Log 1/IC50 [2] | Structure (SMILES) |
| --- | --- | --- |
| 73 nM | 1.14 | Cc1c(C#N)cc2nc(O)c(O)nc2c1[N+](=O)[O-] |
| 7400 nM | -0.87 | O=[N+]([O-])c1cccc(-c2c(O)nc3cc(Cl)cnc3c2O)c1 |
| 640 nM | 0.19 | CCSc1c(Cl)cc2nc(O)c(O)nc2c1[N+](=O)[O-] |
| 3600 nM | -0.56 | CCOc1c(F)cc2nc(O)c(O)nc2c1[N+](=O)[O-] |
| 64 nM | 1.19 | COc1c(Br)cc2nc(O)c(O)nc2c1[N+](=O)[O-] |
| 12 nM | 1.92 | O=Nc1c(O)nc2cc(Cl)c(Cl)cc2c1O |
| 4300 nM | -0.63 | CCCCOc1c(F)cc2nc(O)c(O)nc2c1[N+](=O)[O-] |
| 150 nM | 0.82 | COc1c(Cl)cc2nc(O)c(O)nc2c1[N+](=O)[O-] |
| 29 nM | 1.54 | CCc1cc2nc(O)c(O)nc2c([N+](=O)[O-])c1Cl |
| > 100000 nM | -2 | O=[N+]([O-])c1c(O)nc2c(F)c(F)c(F)c(F)c2c1O |
| 82 nM | 1.09 | CCc1cc2nc(O)c(O)nc2c([N+](=O)[O-])c1Br |
| 8.7 nM | 2.06 | Cc1c(Br)cc2nc(O)c(O)nc2c1[N+](=O)[O-] |
| 34000 nM | -1.53 | O=[N+]([O-])c1c(O)nc2ccccc2c1O |
| > 100000 nM | -2 | O=[N+]([O-])c1c(O)nc2c(Cl)cccc2c1O |
| 45 nM | 1.35 | Cc1cc2nc(O)c(O)nc2c([N+](=O)[O-])c1Cl |
| 29 nM | 1.54 | Cc1cc2nc(O)c(O)nc2c([N+](=O)[O-])c1C |
| 290 nM | 0.54 | Cc1cc(C)c2c(O)c([N+](=O)[O-])c(O)nc2c1 |
| 130 nM | 0.89 | CCc1c(Cl)cc2nc(O)c(O)nc2c1[N+](=O)[O-] |
| 95 nM | 1.02 | Cc1c(F)cc2nc(O)c(O)nc2c1[N+](=O)[O-] |

Source: ChEMBL document CHEMBL1146606, “CoMFA and homology-based models of the glycine binding site of N-methyl-d-aspartate receptor” (J Med Chem, 2003)
